Source: patent publication US10155810B2, “Provasopressin antagonists and uses thereof” (Woomera Therapeutics, Inc., priority 2011, dated 2018)

Tested on: recurrent H82 SCLC cells xenografts
Test: H82 SCLC xenograft, combination with cyclophosphamide
Format: in vivo, nu/nu mice
Conditions: cyclophosphamide 50 mg/kg daily for 3 days, then 100 μg MAG-1 daily for 11 days, i.p.
Experimental: Three groups of nu/nu mice (8 animal per group) were injected with 1×10^7 recurrent H82 SCLC cells per mouse s.c. on the right flank, and the tumors were allowed to grow to an average of about 300 mm^3 in about 14 days. All treatment was carried out by injection intraperitoneally.

O=P1(N(CCCl)CCCl)NCCCO1 (stereo not shown) [cyclophosphamide]
efficacy of combined therapy on tumor growth: synergistic efficacy
